Assay results: patent publication US8492375B2, “1-benzoyl substituted diazepine derivatives as selective histamine H3 receptor agonists” (Glaxo Group Limited, priority 2003, dated 2013)
Structures can show the parent of a compound that is named as a salt.

Experiments:
human H1 receptor = molecular target: T1, human H1 receptor (Homo sapiens, UniProt P35367); assay: Histamine H1 functional antagonist assay (FLIPR, histamine induced increase in fluorescence); type: cell-based; details: Chinese hamster ovary cells stably expressing the human H1 receptor; read-out: antagonism pKb, histamine H1 functional antagonist assay (converted)
T1 construct: expressed in transfected cells
T1 sequence (P35367 whole entry): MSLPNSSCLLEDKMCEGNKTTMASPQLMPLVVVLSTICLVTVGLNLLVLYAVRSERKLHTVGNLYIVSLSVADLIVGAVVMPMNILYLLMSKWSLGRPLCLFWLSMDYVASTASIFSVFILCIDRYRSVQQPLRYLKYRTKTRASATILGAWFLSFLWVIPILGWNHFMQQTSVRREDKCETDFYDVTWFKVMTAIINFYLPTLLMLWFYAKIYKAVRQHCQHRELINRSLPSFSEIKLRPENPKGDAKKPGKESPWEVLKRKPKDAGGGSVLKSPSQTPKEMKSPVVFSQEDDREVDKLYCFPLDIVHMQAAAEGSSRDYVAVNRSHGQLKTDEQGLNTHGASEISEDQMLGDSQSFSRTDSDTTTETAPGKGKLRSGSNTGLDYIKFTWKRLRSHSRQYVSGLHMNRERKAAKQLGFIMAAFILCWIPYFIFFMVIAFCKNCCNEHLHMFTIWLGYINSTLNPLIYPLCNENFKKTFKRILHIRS
Experimental: (iii) Generation of Histamine H1 Cell Line
The human H1 receptor was cloned using known procedures described in the literature [Biochem. Biophys. Res. Commun.
(III) Histamine H1 Functional Antagonist Assay
Compounds are assayed in a black walled clear bottom 384-well plate with cells seeded at 10000 cells/well. […] Each well is treated with 10 μl of a solution of FLUO4AM (10 μM in Tyrodes buffer at pH 7.40) and plates are then incubated for 60 minutes at 37° C. Wells are then washed with Tyrodes buffer using a EMBLA cell washer system, leaving 400 buffer in each well, and then treated with 100 of test compound in Tyrodes buffer. Each plate is incubated for 30 min to allow equilibration of the test compound with the receptor. Each well is then treated with 100 of histamine solution in Tyrodes buffer.
Functional antagonism is indicated by a suppression of histamine induced increase in fluorescence, as measured by the FLIPR system (Molecular Devices). By means of concentration effect curves, functional potencies are determined using standard pharmacological mathematical analysis.

histamine H3 receptor = histamine H3 receptor (Homo sapiens, UniProt Q9Y5N1); assay: Histamine H3 functional antagonist assay ([35S]GTPγS binding, SPA, membranes of CHO K1 cells); details: pKb, antagonism of 0.3 μM histamine, membranes with human H3 receptor
Sequence of histamine H3 receptor (Q9Y5N1 whole entry): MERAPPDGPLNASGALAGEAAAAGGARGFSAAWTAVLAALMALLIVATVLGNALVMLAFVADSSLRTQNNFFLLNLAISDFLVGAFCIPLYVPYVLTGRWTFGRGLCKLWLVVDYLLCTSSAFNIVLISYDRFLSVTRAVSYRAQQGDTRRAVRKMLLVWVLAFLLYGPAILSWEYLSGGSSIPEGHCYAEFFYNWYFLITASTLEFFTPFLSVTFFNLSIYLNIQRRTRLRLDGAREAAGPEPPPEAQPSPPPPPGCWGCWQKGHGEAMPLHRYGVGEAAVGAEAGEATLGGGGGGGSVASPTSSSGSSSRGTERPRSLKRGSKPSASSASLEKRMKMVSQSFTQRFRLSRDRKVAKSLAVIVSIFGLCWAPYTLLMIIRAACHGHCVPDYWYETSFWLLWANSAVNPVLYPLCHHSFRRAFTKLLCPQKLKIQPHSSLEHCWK
Experimental: Ligated DNA was transformed into competent DH5α E. coli host bacterial cells and plated onto Luria Broth (LB) agar containing Zeocin™ (an antibiotic which allows the selection of cells expressing the sh ble gene which is present on pGene and pSwitch) at 50 μg ml^−1. Colonies containing the re-ligated plasmid were identified by restriction analysis. DNA for transfection into mammalian cells was prepared from 250 ml cultures of the host bacterium containing the pGeneH3 plasmid and isolated using a DNA preparation kit (Qiagen Midi-Prep) as per manufacturers guidelines (Qiagen).
CHO K1 cells previously transfected with the pSwitch regulatory plasmid (InVitrogen) were seeded at 2×10e6 cells per T75 flask in Complete Medium, containing Hams F12 (GIBCOBRL, Life Technologies) medium supplemented with 10% v/v dialysed foetal bovine serum, L-glutamine, and hygromycin (100 μg ml^−1), 24 hours prior to use. Plasmid DNA was transfected into the cells using Lipofectamine plus according to the manufacturers guidelines (InVitrogen). 48 hours post transfection cells were placed into complete medium supplemented with 500 μg ml^−1 Zeocin™
10-14 days post selection 10 nM Mifepristone (InVitrogen), was added to the culture medium to induce the expression of the receptor. […] Approximately 1×10e7 cells were examined for receptor expression by staining with a rabbit polyclonal antibody, 4a, raised against the N-terminal domain of the histamine H3 receptor, incubated on ice for 60 minutes, followed by two washes in sorting medium. […] Following two further washes with Sorting Medium, cells were filtered through a 50 μm Filcon™ (BD Biosciences) and then analysed on a FACS Vantage SE Flow Cytometer fitted with an Automatic Cell Deposition Unit. […] Positively stained cells were sorted as single cells into 96-well plates, containing Complete Medium containing 500 μg ml^−1 Zeocin™ and allowed to expand before reanalysis for receptor expression via antibody and ligand binding studies.
(ii) Membrane Preparation from Cultured Cells
All steps of the protocol are carried out at 4° C. and with pre-cooled reagents. The cell pellet is resuspended in 10 volumes of buffer A2 containing 50 mM N-2-hydroxyethylpiperazine-N′-2-ethanesulfonic acid (HEPES) (pH 7.40) supplemented with 10e-4M leupeptin (acetyl-leucyl-leucyl-arginal; Sigma L2884), 25 μg/ml bacitracin (Sigma B0125), 1 mM ethylenediamine tetra-acetic acid (EDTA), 1 mM phenylmethylsulfonyl fluoride (PMSF) and 2×10e-6M pepstain A (Sigma). The cells are then homogenised by 2×15 second bursts in a 1 liter glass Waring blender, followed by centrifugation at 500 g for 20 minutes. The supernatant is then spun at 48,000 g for 30 minutes. The pellet is resuspended in 4 volumes of buffer A2 by vortexing for 5 seconds, followed by homogenisation in a Dounce homogeniser (10-15 strokes). At this point the preparation is aliquoted into polypropylene tubes and stored at −70° C.
(II) Histamine H3 Functional Antagonist Assay
The plate is then incubated on a shaker at room temperature for 30 minutes followed by centrifugation for 5 minutes at 1500 rpm. The plate is read between 3 and 6 hours after completion of centrifuge run in a Wallac Microbeta counter on a 1 minute normalised tritium count protocol. Data is analysed using a 4-parameter logistic equation. Basal activity used as minimum i.e. histamine not added to well.

Kb (human H1 receptor) [nM]	Kb (histamine H3 receptor) [nM]	SMILES
> 1000	< 0.316	N#Cc1ccc(-c2ccc(C(=O)N3CCCN(C4CCC4)CC3)cc2)cc1 [Example 1, 4′-[(4-Cyclobutylhexahydro-1H-1,4-diazepin-1-yl)carbonyl]-4-biphenylcarbonitrile hydrochloride]
> 1000	< 0.316	CC(=O)c1ccc(-c2ccc(C(=O)N3CCCN(C4CCC4)CC3)cc2)cc1 [Example 2, 1-{4′-[(4-Cyclobutylhexahydro-1H-1,4-diazepin-1-yl)carbonyl]-4-biphenylyl}ethanone hydrochloride]
> 1000	≤ 1	O=C(c1ccc(-n2cnnn2)cc1)N1CCCN(C2CCC2)CC1 [Example 7, 1-Cyclobutyl-4-{[4-tetrazol-1-yl)phenyl]carbonyl}hexahydro-1H-1,4-diazepine hydrochloride]
> 1000	≤ 1	O=C(c1ccc(-c2nc(-c3ccc(F)cc3)cs2)cc1)N1CCCN(C2CCC2)CC1 [Example 8, 1-Cyclobutyl-4-({4-[4-(4-fluorophenyl)-1,3-thiazol-2-yl]phenyl}carbonyl) hexahydro-1H-1,4-diazepine hydrochloride]
> 1000	≤ 1	O=C(c1ccc(N2CCS(=O)(=O)CC2)cc1)N1CCCN(C2CCC2)CC1 [Example 9, 1-Cyclobutyl-4-{[4-(1,1-dioxido-4-thiomorpholinyl)phenyl]carbonyl}hexahydro-1H-1,4-diazepine hydrochloride]
> 1000	–	CC(C)N1CCCN(C(=O)c2ccc(OC3CCOCC3)cc2)CC1 [Example 10, 1-(Isopropyl)-4-{[4-(tetrahydro-2H-pyran-4-yloxy)phenyl]carbonyl}hexahydro-1H-1,4-diazepine hydrochloride]
> 1000	< 0.316	O=C(c1ccc(-c2ccc(C(F)(F)F)nc2)cc1)N1CCCN(C2CCC2)CC1 [Example 11, 1-Cyclobutyl-4-({4-[6-(trifluoromethyl)-3-pyridinyl]phenyl}carbonyl)hexahydro-1H-1,4-diazepine hydrochloride]
> 1000	< 0.316	N#Cc1ccc(-c2ccc(C(=O)N3CCCN(C4CCC4)CC3)cc2)nc1 [Example 12, 6-{4-[(4-Cyclobutylhexahydro-1H-1,4-diazepin-1-yl)carbonyl]phenyl}-3-cyanopyridine hydrochloride]
> 1000	≤ 1	CNC(=O)c1ccc(-c2ccc(C(=O)N3CCCN(C4CCC4)CC3)cc2)cn1 [Example 13, 5-{4-[(4-Cyclobutylhexahydro-1H-1,4-diazepin-1-yl)carbonyl]phenyl}-N-methyl-2-pyridinecarboxamide hydrochloride]
> 1000	≤ 1	N#Cc1ccc(-c2ccc(C(=O)N3CCCN(C4CCC4)CC3)cc2)cn1 [Example 14, 5-{4-[(4-Cyclobutylhexahydro-1H-1,4-diazepin-1-yl)carbonyl]phenyl}-2-cyanopyridine hydrochloride]
> 1000	–	CC(C)N1CCCN(C(=O)c2ccc(-c3ccc(C#N)nc3)cc2)CC1 [Example 15, 5-(4-{[4-(1-Isopropyl)hexahydro-1H-1,4-diazepin-1-yl]carbonyl}phenyl)-2-cyanopyridine hydrochloride]
> 1000	≤ 1	CNC(=O)c1ccc(-c2ccc(C(=O)N3CCCN(C(C)C)CC3)cc2)cn1 [Example 16, N-Methyl-5-(4-{[4-(1-isopropyl)hexahydro-1H-1,4-diazepin-1-yl]carbonyl}phenyl)-2-pyridinecarboxamide hydrochloride]
> 1000	≤ 1	O=C(c1ccc(-c2ccc(C(F)(F)F)nn2)cc1)N1CCCN(C2CCC2)CC1 [Example 22, 1-Cyclobutyl-4-({4-[6-(trifluoromethyl)-3-pyridazinyl]phenyl}carbonyl)hexahydro-1H-1,4-diazepine hydrochloride]
> 1000	≤ 1	O=C(c1ccc(-c2cnc(C(F)(F)F)nc2)cc1)N1CCCN(C2CCC2)CC1 [Example 23, 1-Cyclobutyl-4-({4-[2-(trifluoromethyl)-5-pyrimidinyl]phenyl}carbonyl)hexahydro-1H-1,4-diazepine hydrochloride]
–	≤ 1	O=C(c1ccc(-c2ncco2)cc1)N1CCCN(C2CCC2)CC1 [Example 56, 1-Cyclobutyl-4-{[4-(1,3-oxazol-2-yl)phenyl]carbonyl}hexahydro-1H-1,4-diazepine hydrochloride]
–	< 0.316	Cc1noc(-c2ccc(C(=O)N3CCCN(C4CCC4)CC3)cc2)n1 [Example 58, 1-Cyclobutyl-4-{[4-(3-methyl-1,2,4-oxadiazol-5-yl)phenyl]carbonyl}hexahydro-4H-1,4-diazepine hydrochloride]
